In one assay the target is HIV-1 Protease (Human immunodeficiency virus type 1 group M subtype B (isolate HXB2) (HIV-1), UniProt P04585). Briefly: Enzymatic (FRET fluorometric) assay for determining the inhibition constant (Ki) of compounds targeting the HIV protease. The class given is biochemical. The following applies: for IC50: read-out: IC50 ENZYME HIV-1 Protease. An excerpt:
Enzymatic Assay for Determining the Inhibition Constant (Ki) of Synthetic Compounds Targeting the HIV Protease
This is a fluorometric assay based on the cleavage by protease of a substrate carrying a donor group (EDANS) and an acceptor group (DABCYL) on each side of the cleavage site, interacting together through fluorescence resonance energy transfer (FRET) as described by Matayoshi et al. (Science 247:[…], 1990).
After calculation of Vo and Vi, the inhibition constant (Ki) of the compound is determined using the equation of Henderson:
where Vo=the enzyme's initial velocity
Vi=the enzyme velocity in the presence of the inhibitory compound,
[I]=inhibitor concentration, [S]=substrate concentration,
Km=Michaelis-Menten constant and Kiapp=apparent Ki
Graphs are traced and the Ki determined using GraphPad Prism software v. 3.0.

Another assay relates to HIV-1 viral strain NL4-3. As to the kind of experiment: Anti-viral assay in vitro (MTT, infected MT-4 cells, six days). The class given is cell-based. The following applies: Human immunodeficiency virus 1, NL43, MT4, 144 h, read-out: ANTI-HIV-EC50 VIRAL STRAIN NL4-3. As for the experimental part:
Anti-Viral and Cytotoxicity Assays In Vitro
• To evaluate the EC50 of our compounds, various drug concentrations are incubated with the infected cell for six days and then the metabolic activity of the cells is monitored by the MTT assay. (See A. J. Japour et al., Antimicrobial Agents and Chemotherapy, 37, 1095-1101, 1993 and R. Pauwels et al. Journal of Virological Methods, 20, 309-321, 1988) • We use the laboratory viral strain NL4.3 as wild type virus and the cell line used is MT-4 which is a T-cell line highly sensitive to HIV-1. We also use some WT clinical strains. To address the resistance issue we assay the inhibitors with NL4.3 mutants which are designed to be resistant to specific commercially available inhibitors. • The same MTT assay is used to evaluate the CCIC50 (cell culture of IC50) of our compounds except that the virus is omitted.

The mark [1] stands for this setting: KIGRAPHIC ENZYME HIV-1 Protease, Ki determined graphically, read-out: […] ENZYME HIV-1 Protease.
Where [2] appears, read: calculated Ki, read-out: KI-CALC ENZYME HIV-1 Protease.

Where “and” joins values, the source holds several entries; their conditions need not be identical. Equal values may be shown once. Read-outs that look alike come from different tables or passages of the source.

Take `CC(C)CN([C@H](CO)CCCCNC(=O)[C@@H](NC(=O)c1cccc(O)n1)C(c1ccccc1)c1ccccc1)S(=O)(=O)c1ccc2c(c1)OCO2` [EX 28]: the Ki on HIV-1 Protease (setting [1]) came to 0.47 nM.
Regarding `Cc1ccccc1C[C@H](NC(=O)c1cccc(C)c1O)C(=O)NCCCC[C@@H](CO)N(CC(C)C)S(=O)(=O)c1ccc(N)cc1` [EX 23], the Ki on HIV-1 Protease (setting [2]) is < 3.8 nM. Besides, the IC50 at HIV-1 Protease amounted to 4.12 nM. Moreover, the EC50 in the assay on HIV-1 viral strain NL4-3 is > 50000 nM.
Consider `COC(=O)N[C@@H](Cc1ccc(Br)cc1)C(=O)NCCCC[C@@H](COP(=O)(O)O)N(CC(C)C)S(=O)(=O)c1ccc(N)cc1` [EX 6, (1S,5S) [1-{5-[(4-amino-benzenesulfonyl)-isobutyl-amino]-6-phosphonooxy-hexylcarbamoyl}-2-(4-bromo-phenyl)-ethyl]-carbamic acid methyl ester], for which the Ki at HIV-1 Protease (setting [2]) was > 300 nM.
Take `CC(C)CN([C@H](CO)CCCCNC(=O)[C@@H](Cc1ccccc1Br)NC(=O)c1ccc2c(c1)OCO2)S(=O)(=O)c1ccc(N)cc1` [EX. 41]: the Ki at HIV-1 Protease (setting [1]) was 0.05 nM. The IC50 on HIV-1 Protease stood at 0.336 nM. In addition, the EC50 in the assay with HIV-1 viral strain NL4-3 was found to be 43 nM.
On the same counts, the results for `CC(C)CN([C@H](CO)CCCCNC(=O)[C@H](Cc1ccccc1Br)NC(=O)c1cccc(O)n1)S(=O)(=O)c1ccc(N)cc1` [EX 19] are 0.27 nM, 0.29 nM and 99 nM.
For `Cc1ncccc1C(=O)N[C@@H](Cc1ccccc1Cl)C(=O)NCCCC[C@@H](CO)N(CC(C)C)S(=O)(=O)c1ccc(N)cc1` [EX 30], the Ki on HIV-1 Protease (setting [2]) was < 3.8 nM. In addition, the IC50 at HIV-1 Protease was 2.15 nM. Besides, in the assay with HIV-1 viral strain NL4-3, the EC50 turned out to be 422 nM.
Consider `CC(C)CN([C@@H](CCCCNC(=O)[C@H](Cc1ccccc1Br)NC(=O)c1ccncc1)COP(=O)(O)O)S(=O)(=O)c1ccc(N)cc1` [EX 3, (2S,2S) phosphoric acid mono-(2-[(4-aminobenzenesulfonyl)-isobutyl-amino]-6-{3-(2-bromo-phenyl)-2-[(pyridine-4-carbonyl)-amino]-propionylamino}-hexyl)ester], for which the Ki at HIV-1 Protease (setting [2]) is > 300 nM.
The same measure, in the same setting: then `CC(C)CN([C@H](CO)CCCCNC(=O)[C@H](Cc1ccc2ccccc2c1)NS(=O)(=O)c1ccc(C#N)cc1)S(=O)(=O)c1ccc(N)cc1` [EX 53], with 37.4 nM.
Consider `COC(=O)N[C@@H](Cc1ccccc1F)C(=O)NCCCC[C@H](CO)N(CC(C)C)S(=O)(=O)c1ccc2c(c1)OCCN2C` [EX 14], for which, at HIV-1 Protease (setting [2]), the Ki is 75.7 nM. Further, the EC50 in the assay on HIV-1 viral strain NL4-3 came to 1830 nM.
Take `Cc1ccc(C(=O)N[C@@H](Cc2ccccc2C)C(=O)NCCCC[C@@H](CO)N(CC(C)C)S(=O)(=O)c2ccc(N)cc2)cc1O` [EX 63]: the Ki at HIV-1 Protease (setting [2]) was < 3.8 nM. The IC50 at HIV-1 Protease came out at 0.938 nM. Moreover, the EC50 in the assay with HIV-1 viral strain NL4-3 turned out to be 165 nM.
Consider `COC(=O)N[C@@H](Cc1ccccc1F)C(=O)NCCCC[C@@H](COP(=O)(O)O)N(CC(C)C)S(=O)(=O)c1ccc(N)cc1` [EX 4, (1S,5S)-[1-{5-[(4-amino-benzenesulfonyl)-isobutyl-amino]-6-phosphonooxy-hexylcarbamoyl}-2-(2-fluoro-phenyl)-ethyl]-carbamic acid methyl ester], for which the Ki on HIV-1 Protease (setting [2]) was > 300 nM.
On the same count and under the same terms, then `COC(=O)N[C@@H](Cc1ccccc1Cl)C(=O)NCCCC[C@@H](COP(=O)(O)O)N(CC(C)C)S(=O)(=O)c1ccc(N)cc1` [EX 5, (1S,5S) [1-{5-[(4-amino-benzenesulfonyl)-isobutyl-amino]-6-phosphonooxy-hexylcarbamoyl}-2-(2-chloro-phenyl)-ethyl]-carbamic acid methyl ester], with 91 nM; and `COC(=O)N[C@@H](Cc1ccccc1Br)C(=O)NCCCC[C@@H](COP(=O)(O)O)N(CC(C)C)S(=O)(=O)c1ccc(N)cc1` [EX. 1, (1S,5S)-[1-{5-[(4-amino-benzenesulfonyl)-isobutyl-amino]-6-phosphonooxy-hexylcarbamoyl}-2-(2-bromo-phenyl)-ethyl]-carbamic acid methyl ester], with > 300 nM.
For `COC(=O)N[C@@H](CC1CCCCC1)C(=O)NCCCC[C@@H](CO)N(CC(C)C)S(=O)(=O)c1ccc(N)cc1` [EX 24], the Ki on HIV-1 Protease (setting [2]) was 5.3 nM. Further, on HIV-1 Protease, the IC50 worked out at 5.21 nM. In the assay with HIV-1 viral strain NL4-3, the EC50 was > 5000 nM.
On to `CC(C)CN([C@H](CO)CCCCNC(=O)[C@@H](NC(=O)N1CCOCC1)C(c1ccccc1)c1ccccc1)S(=O)(=O)c1ccc2c(c1)CCO2` [EX 34], for which the Ki on HIV-1 Protease (setting [1]) is 0.821 nM; on HIV-1 Protease (setting [2]) it was < 3.8 nM. In addition, the IC50 on HIV-1 Protease was found to be 0.963 nM. Moreover, the EC50 with HIV-1 viral strain NL4-3 was found to be 1000 nM.
Consider `CC(C)CN([C@H](CO)CCCCNC(=O)[C@H](CC1CCCCC1)NC(=O)c1cccnc1)S(=O)(=O)c1ccc(N)cc1` [EX 25], for which the Ki on HIV-1 Protease (setting [2]) was < 3.8 nM. The IC50 at HIV-1 Protease stood at 2.88 nM. Moreover, the EC50 in the assay on HIV-1 viral strain NL4-3 is > 5000 nM.
With `COC(=O)N[C@H](C(=O)NCCCC[C@H](C(N)=O)N(CC(C)C)S(=O)(=O)c1ccc(N)cc1)C(c1ccccc1)c1ccccc1` [EX. 7], the Ki at HIV-1 Protease (setting [1]) is 0.049 nM and 0.042 nM. Besides, on HIV-1 Protease, the IC50 was 0.652 nM and 0.507 nM. Also, the EC50 in the assay on HIV-1 viral strain NL4-3 was 30 nM.
As to `Cc1ccc(C(=O)N[C@@H](Cc2ccccc2C)C(=O)NCCCC[C@@H](CO)N(CC(C)C)S(=O)(=O)c2ccc(N)cc2)cn1` [EX 21], the Ki on HIV-1 Protease (setting [2]) was < 3.8 nM. Besides, on HIV-1 Protease, the IC50 turned out to be 1.29 nM. The EC50 with HIV-1 viral strain NL4-3 amounted to 198 nM.
With `CC(C)CN([C@H](CO)CCCCNC(=O)[C@@H](NS(=O)(=O)c1cccs1)C(c1ccccc1)c1ccccc1)S(=O)(=O)c1ccc(N)cc1` [EX 57], the Ki was 0.541 nM on HIV-1 Protease (setting [1]) and < 3.8 nM on HIV-1 Protease (setting [2]). Further, at HIV-1 Protease, the IC50 was 0.601 nM. Moreover, in the assay with HIV-1 viral strain NL4-3, the EC50 is 64 nM.
Consider `CC(=O)N[C@H](C(=O)NCCCCC(C(N)=O)N(CC(C)C)S(=O)(=O)c1ccc(N)cc1)C(c1ccccc1)c1ccccc1` (stereo partly drawn) [EX. 8], for which, in the assay with HIV-1 viral strain NL4-3, the EC50 came to 238 nM.
For `CC(C)CN([C@H](CO)CCCCNC(=O)[C@H](Cc1ccc2ccccc2c1)NS(=O)(=O)c1cn(C)cn1)S(=O)(=O)c1ccc(N)cc1` [EX 54], the Ki on HIV-1 Protease (setting [2]) was 11.4 nM.
For the compound `COC(=O)N[C@H](C(=O)NCCCC[C@@H](CO)N(Cc1cccnc1)S(=O)(=O)c1ccc(N)cc1)C(c1ccccc1)c1ccccc1` [EX. 33], on HIV-1 Protease (setting [2]), the Ki was < 3.8 nM. Also, at HIV-1 Protease, the IC50 was determined as 1.01 nM. Besides, in the assay on HIV-1 viral strain NL4-3, the EC50 is 196 nM.
As to `Cc1ccccc1C[C@H](NC(=O)c1ccncc1)C(=O)NCCCC[C@@H](CO)N(CC(C)C)S(=O)(=O)c1ccc(N)cc1` [EX 22], the Ki at HIV-1 Protease (setting [2]) is < 3.8 nM. Besides, the IC50 at HIV-1 Protease came to 1.35 nM. Further, the EC50 in the assay on HIV-1 viral strain NL4-3 worked out at 158 nM.
Take `CC(C)CN([C@H](CO)CCCCNC(=O)[C@H](Cc1ccccc1Cl)NC(=O)c1ccncc1)S(=O)(=O)c1ccc(N)cc1` [EX 29]: the Ki at HIV-1 Protease (setting [2]) is < 3.8 nM. The IC50 at HIV-1 Protease is 3.81 nM. The EC50 in the assay on HIV-1 viral strain NL4-3 was found to be 144 nM.
Consider `Cc1cccnc1C(=O)N[C@@H](Cc1ccccc1Br)C(=O)NCCCC[C@@H](CO)N(CC(C)C)S(=O)(=O)c1ccc(N)cc1` [EX 36], for which the Ki is 0.267 nM on HIV-1 Protease (setting [1]) and < 3.8 nM on HIV-1 Protease (setting [2]). Further, on HIV-1 Protease, the IC50 came to 0.503 nM. Moreover, the EC50 in the assay with HIV-1 viral strain NL4-3 came out at 204 nM.
In the case of `Cc1ccccc1C[C@H](NC(=O)c1cccnc1)C(=O)NCCCC[C@@H](CO)N(CC(C)C)S(=O)(=O)c1ccc(N)cc1` [EX 20], at HIV-1 Protease (setting [2]), the Ki was < 3.8 nM. Also, the IC50 at HIV-1 Protease came to 1.42 nM. The EC50 with HIV-1 viral strain NL4-3 was determined as 148 nM.
Turning to `Cc1ncccc1C(=O)N[C@@H](Cc1ccccc1Br)C(=O)NCCCC[C@@H](COP(=O)(O)O)N(CC(C)C)S(=O)(=O)c1ccc(N)cc1` [EX. 2, (2S,2S) phosphoric acid mono-(2-[(4-aminobenzenesulfonyl)-isobutyl-amino]-6-{3-(2-bromo-phenyl)-2-[(2-methyl-pyridine-3-carbonyl)-amino]-propionylamino}-hexyl)ester], at HIV-1 Protease (setting [2]), the Ki was > 300 nM.
In the case of `Cc1ccc(C(=O)N[C@@H](CC2CCCCC2)C(=O)NCCCC[C@@H](CO)N(CC(C)C)S(=O)(=O)c2ccc(N)cc2)cn1` [EX 26], the Ki at HIV-1 Protease (setting [2]) is < 3.8 nM. Also, the IC50 at HIV-1 Protease was found to be 3.31 nM. Besides, the EC50 with HIV-1 viral strain NL4-3 was > 5000 nM.
On the same counts, the results for `COC(=O)N[C@H](C(=O)NCCCC[C@H](CO)N(CC(C)C)S(=O)(=O)c1cccc2cccnc12)C(c1ccccc1)c1ccccc1` [EX 27] are < 3.8 nM, 2.55 nM and 369 nM.
Turning to `CC(C)CN([C@H](CO)CCCCNC(=O)[C@H](Cc1ccccc1Br)NC(=O)OCc1ccncc1)S(=O)(=O)c1ccc(N)cc1` [EX 38], the Ki on HIV-1 Protease (setting [1]) worked out at 0.27 nM. Also, the IC50 on HIV-1 Protease is 0.92 nM. The EC50 in the assay on HIV-1 viral strain NL4-3 was determined as 248 nM.
As for `Cc1nn(C)c(Cl)c1S(=O)(=O)N[C@@H](Cc1ccc2ccccc2c1)C(=O)NCCCC[C@@H](CO)N(CC(C)C)S(=O)(=O)c1ccc(N)cc1` [EX 51], the Ki on HIV-1 Protease (setting [2]) is 26.2 nM.
In the case of `CC(=O)N[C@H](C(=O)NCCCC[C@@H](C(N)=O)N(CC(C)C)S(=O)(=O)c1ccc(N)cc1)C(c1ccccc1)c1ccccc1` [EX. 8], on HIV-1 Protease (setting [2]), the Ki is < 3.8 nM. In addition, the IC50 at HIV-1 Protease stood at 1.07 nM.

A word on the IC50: it is the concentration at which inhibition is half-maximal. As a reminder, the EC50 is the concentration giving half of the maximal effect.
